In assay [1] the target is water-soluble cross-linked polymer of PLP (Achromobacter lyticus, UniProt P15636). Put plainly: Activity to substrates (substrate specificity), cross-linked polymer. Format: biochemical. The following applies: enzyme: Cross-Linked Polymer (0.144 u); pH 9.5, 30°C; Benzoyl lysine-p-nitroanilide = 100. The procedure:
(§1) The activity of the enzyme was measured as follows. […] After preliminarily warming at 30°C, 0.1 mℓ of the enzyme was added to the mixture and the mixture was reacted accurately for 25 minutes at 30°C. After completion of the reaction, 1.0 mℓ of a 45% acetic acid aqueous solution was added to discontinue the reaction. Then, the reaction liquid was colorimetrically measured at wavelength of 405 nm to determine absorbance. As an enzyme unit, an amount of enzyme producing 1 µmole/min of p-nitroaniline at 30°C was made 1 unit (u). Enzyme titer was calculated according to the following equation. [formula] […] Thereafter, activities to the respective substrates were measured according to the method for measuring activity described above. Results of Table 8 were obtained.

Assay [2] deals with PLP prior to Polymerization (Achromobacter lyticus, UniProt P15636). Description: Activity to substrates (substrate specificity), PLP prior to polymerization. Format: biochemical. The following applies: enzyme: PLP prior to Polymerization; pH 9.5, 30°C; Benzoyl lysine-p-nitroanilide = 100. The protocol:
as §1

A further assay relates to PLP-Ia. Format: biochemical, Achromobacter lyticus M 497-1.
The next assay concerns the target Achromobacter protease I (Achromobacter lyticus, UniProt P15636). The following applies: cited from earlier work.

We go through 26 molecules from patent EP0367302A2, “Process for semi-synthesis of human insulin, water-soluble cross-linked Achromobacter protease I for use therein and a process for preparing the same” (priority 1982, dated 1983).

Read-outs that look alike come from different tables or passages of the source.

water-soluble cross-linked polymer of PLP, sequence (P15636 206-473 limits assumed): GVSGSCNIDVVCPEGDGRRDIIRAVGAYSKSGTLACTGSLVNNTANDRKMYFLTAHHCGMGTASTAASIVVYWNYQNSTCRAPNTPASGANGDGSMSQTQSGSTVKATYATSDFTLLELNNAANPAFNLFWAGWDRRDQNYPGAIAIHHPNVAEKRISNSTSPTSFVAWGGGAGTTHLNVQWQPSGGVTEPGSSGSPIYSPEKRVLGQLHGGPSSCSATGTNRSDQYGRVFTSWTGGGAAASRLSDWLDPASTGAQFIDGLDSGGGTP
PLP prior to Polymerization, sequence (P15636 206-473 limits assumed): as above
Achromobacter protease I, sequence (P15636 206-473 limits assumed): as above

Turning to `C[C@H](N)C(=O)Nc1ccc([N+](=O)[O-])cc1` [Alanine-p-nitroanilide], the “Relative Activity” value in assay [1] and in assay [2] was 0.00% throughout.

As for `c1cnc2c(c1)ccc1cccnc12` [o-phenanthroline], the “Relative Activity” value in the assay on PLP-Ia (1000 µM) was 99.3%. Moreover, the “inhibition of the enzyme (in words)” value on Achromobacter protease I is given as “not inhibited”.

As to CoCℓ₂, the “Relative Activity” value in the assay with PLP-Ia (1000 µM) is 98.1%.

As for `CC(=O)N[C@@H](Cc1ccccc1)C(=O)Nc1ccc([N+](=O)[O-])cc1` [Acetylphenylalanine-p-nitroanilide], the “Relative Activity” value in assay [1] and in assay [2] was 0.00% throughout.

`NCCCC[C@H](NC(=O)c1ccccc1)C(=O)Nc1ccc([N+](=O)[O-])cc1` [Benzoyl lysine-p-nitroanilide]: the “Relative Activity” value in assay [1] and in assay [2] was 100% in each case.

With `O=S(=O)(F)Cc1ccccc1` [phenylmethylsulfonyl fluoride], the “inhibition of the enzyme (in words)” value in the assay on PLP-Ia is “undergoes inhibition”. The “Relative Activity” value with PLP-Ia (2000 µM) is 18.3%.

As for `O=C(O)c1cc[c]([Hg][Cl])cc1` [p-chloromercury benzoate], in the assay with PLP-Ia (100 µM), the “Relative Activity” value is on record as 94.8%. The “inhibition of the enzyme (in words)” value at Achromobacter protease I is recorded as “not inhibited”.

On to `[Cl-].[Na+]` [NaCℓ₂], for which the “Relative Activity” value with PLP-Ia (bz-lys-p-na amidase assay, pH 9.5, 25 min, 1000 µM) was found to be 99.0%.

In the case of `NCCCC[C@H](N)C(=O)Nc1ccc([N+](=O)[O-])cc1` [Lysine-p-nitroanilide], the “Relative Activity” value worked out at 5.6% in assay [1] and 2.4% in assay [2].

As to diisopropyl phosphochloride, the “inhibition of the enzyme (in words)” value at Achromobacter protease I was “strongly inhibited”.

On to `N[C@@H](CS)C(=O)O` [L-cystein], for which, in the assay with PLP-Ia (1000 µM), the “Relative Activity” value stood at 97.8%.

Turning to `O=C(N[C@@H](Cc1ccc(O)cc1)C(=O)Nc1ccc([N+](=O)[O-])cc1)c1ccccc1` [Benzoyl tyrosine-p-nitroanilide], the “Relative Activity” value in assay [1] and in assay [2] was 0.00% throughout.

On to `Cc1ccc(S(=O)(=O)N[C@@H](CCCCN)C(=O)CCl)cc1` [tosyl-L-lysine chloromethyl ketone], for which the “inhibition of the enzyme (in words)” value is reported as “undergoes inhibition” with PLP-Ia and “strongly inhibited” at Achromobacter protease I. Further, the “Relative Activity” value in the assay with PLP-Ia (100 µM) was determined as 0%.

Turning to `Cc1ccc(S(=O)(=O)N[C@@H](Cc2ccccc2)C(=O)CCl)cc1` [tosyl-L-phenylalanine chloromethyl ketone], the “Relative Activity” value in the assay with PLP-Ia (1000 µM) was determined as 92.2%. Also, at Achromobacter protease I, the “inhibition of the enzyme (in words)” value is reported as “not inhibited”.

In the case of `O[C@H](CS)[C@H](O)CS` (racemic) [dithiothreitol], in the assay with PLP-Ia (1000 µM), the “Relative Activity” value amounted to 103.9%.

As to NiCℓ₂, the “Relative Activity” value with PLP-Ia (1000 µM) amounted to 83.8%.

For the molecule `N=C(N)NCCC[C@H](NC(=O)c1ccccc1)C(=O)Nc1ccc([N+](=O)[O-])cc1` [Benzoyl arginine-p-nitroanilide], the results for the “Relative Activity” value in assay [1] and in assay [2] were 0.04% and 0.01%, respectively.

`CC(C)C[C@H](N)C(=O)Nc1ccc([N+](=O)[O-])cc1` [Leucine-p-nitroanilide]: the “Relative Activity” value in assay [1] and in assay [2] was 0.00% each time.

For the molecule MnCℓ₂, the “Relative Activity” value in the assay with PLP-Ia (1000 µM) is on record as 101.3%.

As to `O=C(O)CI` [monoiodoacetate], the “Relative Activity” value in the assay with PLP-Ia (1000 µM) worked out at 84.4%.

For the molecule `[Ca+2].[Cl-].[Cl-]` [CaCℓ₂], the “Relative Activity” value in the assay with PLP-Ia (1000 µM) is listed as 102.2%.

Turning to `[Cl][Hg][Cl]` [HgCℓ₂], the “Relative Activity” value in the assay with PLP-Ia (100 µM) worked out at 109.4%.

For `[Cl-].[Cl-].[Zn+2]` [ZnCℓ₂], the “inhibition of the enzyme (in words)” value in the assay with PLP-Ia is “inhibited”. Besides, in the assay with PLP-Ia (1000 µM), the “Relative Activity” value came to 44.1%.

`N[C@@H](CCC(=O)O)C(=O)Nc1ccc([N+](=O)[O-])cc1` [Glutamic acid-p-nitroanilide]: the “Relative Activity” value in assay [1] and in assay [2] was 0.00% in each case.

MgCℓ₂: the “Relative Activity” value in the assay on PLP-Ia (1000 µM) is listed as 95.3%.

With `Cc1ccc(S(=O)(=O)N[C@@H](CCCNC(=N)N)C(=O)CCl)cc1` [tosyl-L-arginine chloromethyl ketone], the “Relative Activity” value in the assay with PLP-Ia (100 µM) was found to be 79.1%.
